From the NIST ThermoML archive (doi:10.1021/je700261b)

Conditions: Liquid

CCCCO [butan-1-ol]
Conditions | mass density [kg/m3]
313.08 K, 1006 kPa | 795.22
313.08 K, 2017 kPa | 796.08
313.08 K, 3007 kPa | 796.85
313.08 K, 4010 kPa | 797.64
313.08 K, 5016 kPa | 798.44
313.08 K, 6017 kPa | 799.22
313.08 K, 7011 kPa | 800
313.08 K, 8006 kPa | 800.77
313.08 K, 9019 kPa | 801.53
313.08 K, 10008 kPa | 802.27
313.08 K, 11014 kPa | 803.01
313.08 K, 12016 kPa | 803.73
313.08 K, 13016 kPa | 804.46
313.08 K, 14013 kPa | 805.18
313.08 K, 15010 kPa | 805.91
313.08 K, 16003 kPa | 806.58
313.08 K, 16999 kPa | 807.29
313.08 K, 17999 kPa | 807.98
313.08 K, 19024 kPa | 808.67
313.08 K, 20005 kPa | 809.33
313.08 K, 21013 kPa | 810.09
313.08 K, 22003 kPa | 810.75
313.08 K, 23024 kPa | 811.41
313.08 K, 24027 kPa | 812.09
313.08 K, 24234 kPa | 812.21
323.05 K, 999 kPa | 787.38
323.05 K, 2026 kPa | 788.22
323.05 K, 3007 kPa | 789.03
323.05 K, 4024 kPa | 789.91
323.05 K, 5012 kPa | 790.75
323.05 K, 6016 kPa | 791.57
323.05 K, 7023 kPa | 792.4
323.05 K, 8004 kPa | 793.16
323.05 K, 9009 kPa | 793.98
323.05 K, 10007 kPa | 794.78
323.05 K, 11004 kPa | 795.57
323.05 K, 11995 kPa | 796.32
323.05 K, 13007 kPa | 797.09
323.05 K, 14022 kPa | 797.85
323.05 K, 14989 kPa | 798.63
323.05 K, 16006 kPa | 799.33
323.05 K, 16998 kPa | 800.1
323.05 K, 18001 kPa | 800.84
323.05 K, 19025 kPa | 801.56
323.05 K, 19993 kPa | 802.28
323.05 K, 21032 kPa | 803.06
323.05 K, 22006 kPa | 803.74
323.05 K, 22993 kPa | 804.41
323.05 K, 24012 kPa | 805.16
323.05 K, 24418 kPa | 805.43
332.93 K, 1013 kPa | 779.33
332.93 K, 2026 kPa | 780.27
332.93 K, 3014 kPa | 781.21
332.93 K, 4006 kPa | 782.04
332.93 K, 5000 kPa | 782.91
332.93 K, 6013 kPa | 783.78
332.93 K, 6997 kPa | 784.6
332.93 K, 8003 kPa | 785.5
332.93 K, 9005 kPa | 786.32
332.93 K, 10001 kPa | 787.17
332.93 K, 10996 kPa | 787.97
332.93 K, 12003 kPa | 788.8
332.93 K, 12993 kPa | 789.62
332.93 K, 14001 kPa | 790.38
332.93 K, 15016 kPa | 791.22
332.93 K, 15998 kPa | 791.96
332.93 K, 16999 kPa | 792.72
332.93 K, 18009 kPa | 793.53
332.93 K, 18986 kPa | 794.29
332.93 K, 20043 kPa | 795.08
332.93 K, 21056 kPa | 795.87
332.93 K, 22040 kPa | 796.59
332.93 K, 23009 kPa | 797.3
332.93 K, 24001 kPa | 798.04
332.93 K, 24515 kPa | 798.46
342.86 K, 1026 kPa | 770.92
342.86 K, 2007 kPa | 771.87
342.86 K, 3003 kPa | 772.85
342.86 K, 4051 kPa | 773.84
342.86 K, 5008 kPa | 774.72
342.86 K, 6023 kPa | 775.59
342.86 K, 7010 kPa | 776.55
342.86 K, 8000 kPa | 777.42
342.86 K, 9001 kPa | 778.28
342.86 K, 10005 kPa | 779.2
342.86 K, 11006 kPa | 780.06
342.86 K, 12010 kPa | 780.9
342.86 K, 13033 kPa | 781.77
342.86 K, 14017 kPa | 782.62
342.86 K, 15001 kPa | 783.45
342.86 K, 16009 kPa | 784.29
342.86 K, 17016 kPa | 785.14
342.86 K, 17991 kPa | 785.93
342.86 K, 19023 kPa | 786.79
342.86 K, 19999 kPa | 787.57
342.86 K, 21000 kPa | 788.37
342.86 K, 22003 kPa | 789.15
342.86 K, 22989 kPa | 789.91
342.86 K, 24004 kPa | 790.69
342.86 K, 24621 kPa | 791.2
352.79 K, 1020 kPa | 762.66
352.79 K, 2014 kPa | 763.68
352.79 K, 3007 kPa | 764.68
352.79 K, 3998 kPa | 765.67
352.79 K, 4998 kPa | 766.69
352.79 K, 5997 kPa | 767.68
352.79 K, 7006 kPa | 768.64
352.79 K, 8005 kPa | 769.61
352.79 K, 9007 kPa | 770.53
352.79 K, 9997 kPa | 771.44
352.79 K, 11008 kPa | 772.38
352.79 K, 12000 kPa | 773.26
352.79 K, 13043 kPa | 774.22
352.79 K, 14002 kPa | 775.11
352.79 K, 15000 kPa | 775.98
352.79 K, 16000 kPa | 776.85
352.79 K, 16992 kPa | 777.72
352.79 K, 17988 kPa | 778.56
352.79 K, 18994 kPa | 779.41
352.79 K, 20012 kPa | 780.22
352.79 K, 21003 kPa | 781.04
352.79 K, 22010 kPa | 781.87
352.79 K, 22971 kPa | 782.68
352.79 K, 24021 kPa | 783.49
352.79 K, 24573 kPa | 783.95
362.67 K, 1043 kPa | 753.5
362.67 K, 2116 kPa | 754.77
362.67 K, 3026 kPa | 755.74
362.67 K, 4013 kPa | 756.82
362.67 K, 5024 kPa | 757.87
362.67 K, 6047 kPa | 758.93
362.67 K, 7014 kPa | 759.93
362.67 K, 8012 kPa | 760.98
362.67 K, 9025 kPa | 762.03
362.67 K, 10015 kPa | 762.94
362.67 K, 11002 kPa | 763.92
362.67 K, 12002 kPa | 764.89
362.67 K, 13011 kPa | 765.86
362.67 K, 14011 kPa | 766.84
362.67 K, 15014 kPa | 767.7
362.67 K, 16006 kPa | 768.67
362.67 K, 17009 kPa | 769.58
362.67 K, 18008 kPa | 770.48
362.67 K, 18993 kPa | 771.37
362.67 K, 19990 kPa | 772.21
362.67 K, 21007 kPa | 773.1
362.67 K, 21997 kPa | 773.96
362.67 K, 23014 kPa | 774.89
362.67 K, 24000 kPa | 775.58
362.67 K, 24563 kPa | 776.12
